Laboratory results: patent US10034476B2, “Insecticidal phenyl-or pyridyl-piperdine compounds” (Syngenta Participations AG, priority 2008, dated 2018)
Counter-ions that a name gives are not always drawn.

Legend:
Type in all cases: in vivo
Spodoptera littoralis = Spodoptera littoralis (Egyptian cotton leafworm) cotton leaf disc spray test; details: foliar, 72 h, 200 ppm spray on cotton leaf discs, L1 larvae, 3 DAT, mortality, feeding behavior, growth regulation
Description: Spodoptera littoralis (Egyptian Cotton Leafworm) Cotton leaf discs were placed on agar in a 24-well microtiter plate and sprayed with test solutions at an application rate of 200 ppm. After drying, the leaf discs were infested with 5 L1 larvae. The samples were checked for mortality, feeding behavior, and growth regulation 3 days after treatment (DAT).

Heliothis virescens = Heliothis virescens (tobacco budworm) egg/artificial diet test; details: 96 h, 200 ppm (concentration in well 18 ppm), eggs 0-24 h old on artificial diet, 4 days, egg mortality, larval mortality, growth regulation
Procedure: Heliothis virescens (Tobacco Budworm): Eggs (0-24 h old) were placed in 24-well microtiter plate on artificial diet and treated with test solutions at an application rate of 200 ppm (concentration in well 18 ppm) by pipetting. After an incubation period of 4 days, samples were checked for egg mortality, larval mortality, and growth regulation.

Plutella xylostella = Plutella xylostella (diamond back moth) artificial diet test; details: 144 h, 200 ppm (concentration in well 18 ppm), L2 larvae, 6 days, larval mortality, growth regulation
Procedure: (§1) Plutella xylostella (Diamond Back Moth): 24-well microtiter plate (MTP) with artificial diet was treated with test solutions at an application rate of 200 ppm (concentration in well 18 ppm) by pipetting. After drying, the MTP's were infested with L2 larvae (7-12 per well). After an incubation period of 6 days, samples were checked for larval mortality and growth regulation.

Diabrotica balteata = Diabrotica balteata (corn root worm) artificial diet test; details: 120 h, 200 ppm (concentration in well 18 ppm), L2 larvae, 5 days, larval mortality, growth regulation
Procedure: as §1, with “Diabrotica Balteata (Corn Root Worm): A” for “Plutella xylostella (Diamond Back Moth):”, “with” for “with L2”, “(L2) (6-10” for “(7-12”, “5” for “6”, “mortality,” for “mortality”

Measured: pest or weed control at 200 ppm

O=C(Nc1cc(F)c(F)c(F)c1C1CCN(Cc2ccc(-c3ccc(F)cc3)cc2)CC1)c1ccnc(Cl)c1 [Compound E1, 2-chloro-N-{3,4,5-trifluoro-2-[1-(4′-fluoro-biphenyl-4-ylmethyl)-piperidin-4-yl]-phenyl}-isonicotinamide]
≥ 80%: all assays above

O=C(Nc1ccc(C(F)(F)F)cc1C1CCN(Cc2ccc(-c3ccc(Cl)cc3Cl)cc2)CC1)c1ccnc(Cl)c1 [Compound F1]
≥ 80%: all assays above

O=C(Nc1cc(F)c(F)c(F)c1C1CC[N+]([O-])(Cc2ccc(-c3ccc(F)cc3)cc2)CC1)c1ccnc(Cl)c1 (stereo not shown) [Compound G1, 2-chloro-N-{3,4,5-trifluoro-2-[1-(4′-fluoro-biphenyl-4-ylmethyl)-piperidin-4-yl]-phenyl}-isonicotinamide N-oxide]
≥ 80%: all assays above

O=C(Nc1ccc(C(F)(F)F)cc1C1CC[N+](O)(Cc2ccc(-c3ccc(F)cc3)cc2)CC1)c1ccnc(Cl)c1 (stereo not shown) [Compound J1]
≥ 80%: all assays above

O=C(Nc1ccc(C(F)(F)F)nc1C1CC[N+](O)(Cc2ccc(-c3ccc(F)cc3)cc2)CC1)c1ccnc(Cl)c1 (stereo not shown) [Compound K1, 2-chloro-N-[1′-(4′-fluoro-biphenyl-4-ylmethyl)-1′-oxy-6-trifluoromethyl-1′,2′,3′,4′,5′,6′-hexahydro-[2,4′]bipyridinyl-3-yl]-isonicotinamide 3-hydroxypropyl sulfonate salt]
≥ 80%: all assays above

O=C(Nc1cc(Cl)c(Cl)nc1C1CCN(Cc2ccc(-c3ccc(F)cc3)cc2)CC1)c1ccnc(Cl)c1 [Compound M1, hydrochloride]
≥ 80%: all assays above

O=C(Nc1ccc(C(F)(F)F)nc1C1CCN(Cc2ccc(-c3ccc(F)cc3)cc2)CC1)c1ccnc(Cl)c1 [Compound M4]
≥ 80%: all assays above
